Test results from article PMC5906549, “Cathelicidin-Derived Antimicrobial Peptides Inhibit Zika Virus Through Direct Inactivation and Interferon Pathway” (Frontiers in Immunology, 2018).
Peptide text beside a SMILES is read from it.

How the values were obtained:
[1] = test system: ZIKV strain MR766; test: ZIKV RNA in infected Vero cells, peptide pre-treatment (real-time RT-PCR); format: cell-based, Zika virus; conditions: 2 h before ZIKV MOI 0.5, re-treated at 24 h, 48-h post-infection, RT-PCR normalized to GAPDH, N = 3
Procedure: Human fetal astrocytes were derived from a single-cell isolation process of fetal brain tissues as previously described ([25], [26]). Briefly, dissociated brain tissue was incubated with 0.25% trypsin for 30 min, followed by neutralization with 10% fetal bovine serum (FBS), and further dissociated by trituration. The single-cell suspension was cultured as adherent cells in DMEM/F12 (Thermo Fisher Scientific, Waltham, MA, USA), supplemented with 10% FBS, penicillin (50 units/mL), and streptomycin (50 µg/mL) (Thermo Fisher Scientific). […] Vero cells (ATCC, CCL-81), an African green monkey kidney cell line, were maintained in Dulbecco’s Modified Eagle Medium (DMEM) with 5% FBS. Experiments with ZIKV were performed exclusively inside a BioSafety Level 2 (laboratory). All procedures utilized in this study were approved by the Institutional Biosafety Committee (IBC 16-05-013BL2) and followed biosafety level II practices as shown in National Institutes of health (NIH) Guideline Appendix G-II-B. ZIKV strain MR766 (Uganda, 1947) was obtained from ZeptoMetrix Corp., Buffalo, NY, USA, and propagated in Vero cells. ZIKV infection of the Vero cells and fetal astrocytes was previously characterized ([27]) and all infections in the current studies were at the MOI of 0.5.
Total mRNA was isolated with TRIzol Reagent (Thermo Fisher Scientific) and RNeasy Mini Kit (QIAGEN Inc., Valencia, CA, USA) following the manufacturer’s recommendations. Two real-time RT-PCR methods were used for the current studies. First, SYBR Green-based RT-PCR assay was used to determine intracellular ZIKV RNA in Vero cells. For this assay, reverse transcription was performed using Verso cDNA synthesis Kit (Thermo Fisher Scientific) and 1 µg of total RNA in a 15-µL final volume. The RT-PCR analyses were performed using 7.5-µL SYBR Green PCR Master Mix (Thermo Fisher Scientific) with 0.5-µL cDNA, 1.5-µL H2O, 5.5-µL oligonucleotide primer pairs at 10 µM. […] GG-3. PCR program: 1, 50°C for 2 min; 2, 95°C for 2 min; 3, 95°C for 15 s; 4, specific annealing temperature for 15 s; 5, 72°C for 1 min. Steps 2–4 were repeated 40 times. All samples were amplified in triplicate for analysis. Relative ZIKV RNA levels were determined and standardized with a GAPDH internal control using comparative ΔΔCT method ([35]). Second, TaqMan-based RT-PCR assay was used to determine intracellular ZIKV RNA and other gene expressions in Figures 3–6 and extracellular ZIKV RNA in Figure 3. The TaqMan assay was performed in a StepOne^TM Real-Time PCR system (Thermo Fisher Scientific). Primers used for TaqMan real-time RT-PCR were all from the Thermo Fisher Scientific, which included ZIKV (forward sequence: 5-[…]-3, reverse sequence: 5- […]-3, and probe sequence: 5′-[…]-3), IFN-α2 (Hs00265051_s1), IFN-β1 (Hs01077958_s1), eukaryotic 18-s rRNA (Hs99999901_s1), β-actin (Hs99999903_m1), and GAPDH (Catalog number: 4310884E). Relative ZIKV mRNA levels were determined and standardized with a GAPDH or 18-s rRNA endogenous control using comparative ΔΔCT method ([35]). […] For ZIKV in supernatants, RNA was extracted from the supernatants through TRIzol™ LS Reagent (Thermo Fisher Scientific, 10296028) following the manufacturer’s manual. […] Quantitative genomic RNA from ZIKV (NR-1838DQ, ATCC) was used as a standard to calculate viral copies.

[2] = Cell viability MTS assay in Vero cells; conditions: African green monkey
Procedure: Cell viability was examined by the CellTiter 96 ®Aqueous One Solution Cell Proliferation Assay (Promega, Madison, WI, USA). Vero cells and astrocytes were seeded into 96-well tissue culture plates (Fisher Scientific) and treated with fresh growth medium containing different concentrations of each peptide for 2 or 4 days at 37°C. At the experimental end point, MTS [3-(4,5-dimethylthiazol-2-yl)-5-(3-carboxymethoxyphenyl)-2-(4-sulfophenyl)-2H-tetrazolium] was added to the cultures and incubated for 1 h. The absorbance at 490 nm was recorded through BioTek Gen5 data analysis software (Winooski), VT, optical density (OD) values were used as a representation of cell viability.
(A) Vero cells were treated with doses of peptides ranging from 1 to 50 µM. After 24 h, the cultures were washed and treated with same doses of peptides in fresh medium for another 24 h. Cell viability was determined by a colorimetric MTS assay. Results shown are the averages ±SD of experiments performed in triplicate. Data were analyzed by non-linear regression. The EC50 was assessed for each of the antimicrobial peptides. (B) Vero cells were treated with doses of peptides ranging from 0.4 to 10 µM for 2 h then infected with ZIKV at the MOI of 0.5. After 24 h, the cultures were washed and treated with same doses of peptides in fresh medium for another 24 h. ZIKA RNA was detected in total cellular RNA through real-time RT-PCR. Data were normalized to GAPDH and presented as fold change (in log scale) compared with ZIKV group. ** p < 0.01 and *** p < 0.001, as compared with the ZIKV group without the peptide treatment (ANOVA, N = 3).
A, B) Vero cells were treated with 10 µM AMPs for 2 days or 4 days as outlined in the figure. For 4-day treatment, Vero cells were repeatedly treated with 10 µM AMPs at 2-day post-treatment. At the experimental end point, cell viability was determined by a colorimetric MTS assay CellTiter 96® AQueous One Solution Assay (Promega, Madison, WI) based on the manufacture’s instruction. Results were normalized as percentage of cell viability in control astrocytes. CTL, control. * denotes p < 0.05, ** denotes p < 0.01, *** denotes p < 0.001 as compared to the control group without peptide treatment (ANOVA, N = 3).

[3] = test system: ZIKV strain MR766; test: ZIKV RNA in astrocytes with recombinant IFN-α or with inhibition of type-I IFN signaling; format: cell-based, Zika virus; conditions: astrocytes pretreated 2 h with anti-IFN-α neutralizing antibodies (200 neutralizing units/mL) or 1-µM fludarabine, then AMPs 2 h, ZIKV MOI 0.5; RNA at 24 h
Procedure: Total mRNA was isolated with TRIzol Reagent (Thermo Fisher Scientific) and RNeasy Mini Kit (QIAGEN Inc., Valencia, CA, USA) following the manufacturer’s recommendations. Two real-time RT-PCR methods were used for the current studies. First, SYBR Green-based RT-PCR assay was used to determine intracellular ZIKV RNA in Vero cells. For this assay, reverse transcription was performed using Verso cDNA synthesis Kit (Thermo Fisher Scientific) and 1 µg of total RNA in a 15-µL final volume. The RT-PCR analyses were performed using 7.5-µL SYBR Green PCR Master Mix (Thermo Fisher Scientific) with 0.5-µL cDNA, 1.5-µL H2O, 5.5-µL oligonucleotide primer pairs at 10 µM. […] GG-3. PCR program: 1, 50°C for 2 min; 2, 95°C for 2 min; 3, 95°C for 15 s; 4, specific annealing temperature for 15 s; 5, 72°C for 1 min. Steps 2–4 were repeated 40 times. All samples were amplified in triplicate for analysis. Relative ZIKV RNA levels were determined and standardized with a GAPDH internal control using comparative ΔΔCT method ([35]). […] Relative ZIKV mRNA levels were determined and standardized with a GAPDH or 18-s rRNA endogenous control using comparative ΔΔCT method ([35]). […] Quantitative genomic RNA from ZIKV (NR-1838DQ, ATCC) was used as a standard to calculate viral copies.

| Structure (SMILES) | ZIKV RNA compared with untreated controls ([1]; peptide 2 µM) | EC50 at 48 h [2] | ZIKV RNA compared with untreated controls ([1]; peptide 0.4 µM) | Effect on GF-17- and BMAP-18-mediated ZIKV inhibition [3] |
| --- | --- | --- | --- | --- |
| CC[C@H](C)[C@H](N)C(=O)N[C@@H](CCCCN)C(=O)N[C@@H](Cc1c[nH]c2ccccc12)C(=O)N[C@@H](CCCCN)C(=O)N[C@@H](CCCCN)C(=O)N[C@@H](CC(C)C)C(=O)N[C@@H](CC(C)C)C(=O)N[C@@H](CCCNC(=N)N)C(=O)N[C@@H](C)C(=O)N[C@@H](C)C(=O)N[C@@H](CCCCN)C(=O)N[C@@H](CCCNC(=N)N)C(=O)N[C@H](C(=O)N[C@@H](CC(C)C)C(=O)O)[C@@H](C)CC [DASamP2] (H-IKWKKLLRAAKRIL-OH) | significantly decreased ZIKV RNA | > 50 µM | – | – |
| CC[C@@H](C)[C@@H](NC(=O)CN)C(=O)N[C@H](CCCCN)C(=O)N[C@H](CCC(=O)O)C(=O)N[C@H](Cc1ccccc1)C(=O)N[C@H](CCCCN)C(=O)N[C@H](CCCNC(=N)N)C(=O)N[C@@H](C(=O)N[C@@H](C(=O)N[C@H](CCC(N)=O)C(=O)N[C@H](CCCNC(=N)N)C(=O)N[C@@H](C(=O)N[C@H](CCCCN)C(=O)N[C@H](CC(=O)O)C(=O)N[C@H](Cc1ccccc1)C(=O)N[C@H](CC(C)C)C(=O)N[C@H](CCCNC(=N)N)C(=O)N[C@H](CC(N)=O)C(=O)N[C@H](CC(C)C)C(=O)N[C@@H](C(=O)O)C(C)C)[C@H](C)CC)C(C)C)[C@H](C)CC [GI-20D-form] | significantly decreased ZIKV RNA | 4 µM | significantly decreased ZIKV RNA | – |
| CC[C@H](C)[C@H](NC(=O)CN)C(=O)N[C@@H](CCCCN)C(=O)N[C@@H](CCC(=O)O)C(=O)N[C@@H](Cc1ccccc1)C(=O)N[C@@H](CCCCN)C(=O)N[C@@H](CCCNC(=N)N)C(=O)N[C@H](C(=O)N[C@H](C(=O)N[C@@H](CCC(N)=O)C(=O)N[C@@H](CCCNC(=N)N)C(=O)N[C@H](C(=O)N[C@@H](CCCCN)C(=O)N[C@@H](CC(=O)O)C(=O)N[C@@H](Cc1ccccc1)C(=O)N[C@@H](CC(C)C)C(=O)N[C@@H](CCCNC(=N)N)C(=O)N[C@@H](CC(N)=O)C(=O)N[C@@H](CC(C)C)C(=O)N[C@H](C(=O)O)C(C)C)[C@@H](C)CC)C(C)C)[C@@H](C)CC [GI-20] | significantly decreased ZIKV RNA | > 50 µM | significantly decreased ZIKV RNA | – |
| CC[C@H](C)[C@H](NC(=O)[C@H](CCCCN)NC(=O)[C@H](CCC(=O)O)NC(=O)[C@H](CCCCN)NC(=O)[C@H](CO)NC(=O)[C@H](CCCCN)NC(=O)[C@H](CCCNC(=N)N)NC(=O)[C@H](Cc1ccccc1)NC(=O)[C@H](Cc1ccccc1)NC(=O)[C@H](CC(=O)O)NC(=O)CNC(=O)[C@H](CC(C)C)NC(=O)[C@@H](N)CC(C)C)C(=O)NCC(=O)N[C@@H](CCCCN)C(=O)N[C@@H](CCC(=O)O)C(=O)N[C@@H](Cc1ccccc1)C(=O)N[C@@H](CCCCN)C(=O)N[C@@H](CCCNC(=N)N)C(=O)N[C@H](C(=O)N[C@H](C(=O)N[C@@H](CCC(N)=O)C(=O)N[C@@H](CCCNC(=N)N)C(=O)N[C@H](C(=O)N[C@@H](CCCCN)C(=O)N[C@@H](CC(=O)O)C(=O)N[C@@H](Cc1ccccc1)C(=O)N[C@@H](CC(C)C)C(=O)N[C@@H](CCCNC(=N)N)C(=O)N[C@@H](CC(N)=O)C(=O)N[C@@H](CC(C)C)C(=O)N[C@H](C(=O)N1CCC[C@H]1C(=O)N[C@@H](CCCNC(=N)N)C(=O)N[C@H](C(=O)N[C@@H](CCC(=O)O)C(=O)N[C@@H](CO)C(=O)O)[C@@H](C)O)C(C)C)[C@@H](C)CC)C(C)C)[C@@H](C)CC [LL-37, reference compound] | significantly decreased ZIKV RNA | – | significantly decreased ZIKV RNA | – |
| Nc1nc(F)nc2c1ncn2[C@@H]1O[C@H](CO)[C@@H](O)[C@@H]1O [fludarabine, Fludarabine] | – | – | – | dampened but did not completely block |
